System: IRF pathway of THP-1
Test: Test on the activity of IRF pathway of THP-1 (THP1-Dual reporter cells stimulated with 2'3'-cGAMP)
Assay type: cell-based
Settings: Homo sapiens, PMA-treated, 2'3'-cGAMP 5 ug/mL, QUANTI-Luc readout, read-out: IC50 of inhibition of the activity of IRF pathway
Experimental: 0.3 uM of PMA (phorbol myristate acetate, SIGMA, P1585) was added to THP1-Dual™ cells (NF-κB-SEAP IRF-Luc Reporter Monocytes, Invivogen, thpd-nfis), and the cells were cultured at 37° C. for 1 day in RPMI1640 with 10% Fetal Bovine Serum (FBS). A compound with a known concentration was added, and the cells were incubated at room temperature for 1 hour. Mammalian (non-canonical) CDN, cyclic [G(2′,5′)pA(3′,5′)p] (2′3′-cGAMP, Invivogen, tlrl-nacga23) was added to a final concentration of 5 ug/mL, and the cells were cultured at 37° C. On the following day, QUANTI-Luc™ (Secreted luciferase detection medium, Invivogen, rep-qlc) was added to the culture solution and the activity of IRF pathway was measured using a microplate reader. The inhibition ratio at each concentration was determined, where the activity of IRF pathway with no addition of the test compound or 2′3′-cGAMP was defined as 100% inhibition and the activity of IRF pathway with no addition of the test compound and with addition of 2′3′-cGAMP was defined as 0% inhibition. The IC50 value was calculated by sigmoid […] model non-linear regression analysis.

SMILES | IC50
O=C(C#Cc1ccc(-c2ccccc2)c(C(F)(F)F)c1)N1CCS(=O)(=O)CC1CO (racemic) [Example 128, rac-(3R)-3-(hydroxymethyl)-4-{3-[2-(trifluoromethyl)[1,1′-biphenyl]-4-yl]prop-2-ynoyl}-1λ^6-thiomorpholine-1,1-dione] | 70 nM
CN1CCN(C(=O)C#Cc2cccc(-c3ccccc3)c2)CC1 [Example 2] | 1090 nM
CN1CCN(C(=O)C#Cc2ccc(-c3ccccc3)nc2)CC1 [Example 5] | 950 nM
CN1CCN(C(=O)C#Cc2ccc(-n3cccn3)cc2)CC1 [Example 8] | 7750 nM
O=C(C#Cc1ccc(-c2ccccc2)c(C(F)(F)F)c1)N1CC(O)(CO)C1 [Example 9] | 116 nM
O=C(C#Cc1ccc(-c2ccccc2)c(C(F)(F)F)c1)N[C@@H]1CCNC1=O [Example 11] | 146 nM
O=C(C#Cc1ccc(-c2ccccc2)c(C(F)(F)F)c1)N1CCN(C2CC2)CC1 [Example 13] | 1540 nM
CC(C)N1CCN(C(=O)C#Cc2ccc(-c3ccccc3)c(C(F)(F)F)c2)CC1 [Example 15] | 237 nM
O=C(C#Cc1ccc(-c2ccccc2)c(C(F)(F)F)c1)N[C@@H]1COC[C@H]1O [Example 17] | 233 nM
CN1CCN(C(=O)C#Cc2ccc(-c3ccccc3)cc2)CC1 [Example 19] | 1390 nM
NC(=O)[C@@H]1CCN(C(=O)C#Cc2ccc(-c3ccccc3)c(C(F)(F)F)c2)C1 [Example 20, (3R)-1-{3-[2-(trifluoromethyl)[1,1′-biphenyl]-4-yl]prop-2-ynoyl}pyrrolidine-3-carboxamide] | 244 nM
NC(=O)[C@@H]1[C@@H](O)CCN1C(=O)C#Cc1ccc(-c2ccccc2)c(C(F)(F)F)c1 [Example 25] | 158 nM
O=C(C#Cc1ccc(-c2ccccc2)c(C(F)(F)F)c1)N1CCC(O)(CO)CC1 [Example 26] | 299 nM
NC(=O)[C@H]1CCN(C(=O)C#Cc2ccc(-c3ccccc3)c(C(F)(F)F)c2)C1 [Example 27] | 216 nM
NS(=O)(=O)CCNC(=O)C#Cc1ccc(-c2ccccc2)c(C(F)(F)F)c1 [Example 30] | 159 nM
CS(=O)(=O)NCCNC(=O)C#Cc1ccc(-c2ccccc2)c(C(F)(F)F)c1 [Example 31] | 115 nM
O=C(C#Cc1ccc(-c2ccccc2)c(C(F)(F)F)c1)NC(CO)CO [Example 39] | 351 nM
O=C(C#Cc1ccc(-c2ccccc2)c(C(F)(F)F)c1)N1CC(O)C1 [Example 42] | 158 nM

SMILES | IC50
NC(=O)[C@H](CO)NC(=O)C#Cc1ccc(-c2ccccc2)c(C(F)(F)F)c1 [Example 45, N^2-{3-[2-(trifluoromethyl)[1,1′-biphenyl]-4-yl]prop-2-ynoyl}-L-serinamide] | 89 nM
O=C(C#Cc1ccc(-c2ccccc2)c(C(F)(F)F)c1)N(CCO)c1ccccc1 [Example 48] | 91 nM
NC(=O)CNC(=O)C#Cc1ccc(-c2ccccc2)c(C(F)(F)F)c1 [Example 49] | 231 nM
O=C(C#Cc1ccc(-c2ccccc2)c(C(F)(F)F)c1)N(CCO)C1CCOCC1 [Example 51] | 184 nM
O=C(C#Cc1ccc(-c2ccccc2)c(C(F)(F)F)c1)N(CCO)C1CC1 [Example 52] | 442 nM
CC(C)N(CCO)C(=O)C#Cc1ccc(-c2ccccc2)c(C(F)(F)F)c1 [Example 53] | 550 nM
Cn1cc(N(CCO)C(=O)C#Cc2ccc(-c3ccccc3)c(C(F)(F)F)c2)cn1 [Example 55] | 83 nM
O=C(C#Cc1ccc(-c2cccc(OC(F)F)c2)c(C(F)(F)F)c1)N[C@@H]1COC[C@H]1O [Example 58] | 441 nM
O=C(C#Cc1ccc(-c2ccccc2)c(C(F)(F)F)c1)N[C@H]1COC[C@H]1O [Example 60] | 528 nM
O=C(C#Cc1ccc(-c2cccc(OC(F)F)c2)c(C(F)(F)F)c1)N1C[C@@H](O)[C@@H](O)C1 [Example 64] | 448 nM
O=C(C#Cc1ccc(-c2cccc(OC(F)F)c2)c(C(F)(F)F)c1)N1C[C@@H](O)[C@H](O)C1 [Example 65] | 340 nM
O=C(C#Cc1ccc(-c2ccccc2OC(F)(F)F)c(C(F)(F)F)c1)N1C[C@@H](O)[C@H](O)C1 [Example 66] | 48 nM
O=C(C#Cc1ccc(-c2ccccc2OC(F)(F)F)c(C(F)(F)F)c1)N[C@H]1COC[C@@H]1O [Example 67] | 38 nM
O=C(C#Cc1ccc(-c2ccccc2OC(F)(F)F)c(C(F)(F)F)c1)N1C[C@H](O)[C@@H](O)C1 [Example 70] | 35 nM
O=C(C#Cc1ccc(-c2ccccc2OC(F)(F)F)c(C(F)(F)F)c1)N1C[C@@H](O)[C@@H](O)C1 [Example 71] | 43 nM
O=C(C#Cc1ccc(-c2ccccc2OC(F)(F)F)c(C(F)(F)F)c1)NC[C@@H](O)CO [Example 74] | 48 nM
O=C(C#Cc1ccc(-c2ccccc2OC(F)(F)F)c(C(F)(F)F)c1)NC[C@H](O)CO [Example 75] | 73 nM

Continued by falling IC50, values first:

IC50 | SMILES
13400 nM | CN1CCN(C(=O)C#Cc2ccccc2-c2ccccc2)CC1 [Example 1, 3-([1,1′-biphenyl]-2-yl)-1-(4-methylpiperazin-1-yl)prop-2-yn-1-one]
4820 nM | CN1CCN(C(=O)C#Cc2cnn(-c3ccccc3)c2C(F)(F)F)CC1 [Example 6]
2060 nM | CN1CCN(C(=O)C#Cc2cn(-c3ccccc3)nc2C(F)(F)F)CC1 [Example 7]
1410 nM | O=C(C#Cc1ccc(C2=CCOCC2)c(C(F)(F)F)c1)N1C[C@@H](O)[C@@H](O)C1 [Example 18]
1210 nM | O=C(C#Cc1ccc(-c2ccccc2OC(F)(F)F)c(C(F)(F)F)c1)N[C@@H]1COC[C@@H]1O [Example 72]
792 nM | O=C(C#Cc1ccc(-c2ccc(OC(F)(F)F)cc2)c(C(F)(F)F)c1)NC[C@H](O)CO [Example 41]
611 nM | O=C(C#Cc1ccc(-c2ccc(OC(F)F)cc2)c(C(F)(F)F)c1)N1C[C@@H](O)[C@H](O)C1 [Example 61]
594 nM | O=C(C#Cc1ccc(-c2ccc(OC(F)F)cc2)c(C(F)(F)F)c1)N[C@H]1COC[C@@H]1O [Example 62]
444 nM | O=C(C#Cc1ccc(-c2ccccc2)c(C(F)(F)F)c1)N[C@@H]1COC[C@@H]1O [Example 59]
422 nM | O=C(C#Cc1ccc(-c2ccc(OC(F)(F)F)cc2)c(C(F)(F)F)c1)NC[C@@H](O)CO [Example 40]
422 nM | O=C(C#Cc1ccc(-c2ccc(OC(F)F)cc2)c(C(F)(F)F)c1)N[C@@H]1COC[C@H]1O [Example 63]
385 nM | O=C(C#Cc1ccc(-c2ccccc2)c(C(F)(F)F)c1)N[C@H]1CCNC1=O [Example 12]
381 nM | O=C(C#Cc1ccc(-c2cccc(OC(F)F)c2)c(C(F)(F)F)c1)N[C@H]1COC[C@@H]1O [Example 57]
374 nM | O=C(C#Cc1ccc(-c2ccccc2)c(C(F)(F)F)c1)N1CCN(C2COC2)CC1 [Example 14]
295 nM | O=C(C#Cc1ccc(-c2ccccc2)c(C(F)(F)F)c1)N1CCOCC1 [Example 21]
277 nM | O=C(C#Cc1cnc(-c2ccccc2)c(C(F)(F)F)c1)N1C[C@@H](O)[C@@H](O)C1 [Example 47, 1-[(3R,4S)-3,4-dihydroxypyrrolidin-1-yl]-3-[6-phenyl-5-(trifluoromethyl)pyridin-3-yl]prop-2-yn-1-one]
256 nM | O=C(C#Cc1ccc(-c2cccc(OC(F)F)c2)c(C(F)(F)F)c1)N1C[C@H](O)[C@@H](O)C1 [Example 56]

IC50 | SMILES
236 nM | CN1CCN(C(=O)C#Cc2ccc(-c3ccccc3)cn2)CC1 [Example 4]
229 nM | O=C(C#Cc1ccc(-c2ccccc2)c(C(F)(F)F)c1)N1CCN(C2CCS(=O)(=O)C2)CC1 (stereo not drawn) [Example 16]
210 nM | O=C(C#Cc1ccc(-c2ccccc2)c(C(F)(F)F)c1)N1CCSCC1 [Example 22]
195 nM | NC(=O)N1CCN(C(=O)C#Cc2ccc(-c3ccccc3)c(C(F)(F)F)c2)CC1 [Example 37]
190 nM | O=C(C#Cc1ccc(-c2ccccc2OC(F)(F)F)c(C(F)(F)F)c1)NCCO [Example 69]
182 nM | O=C(C#Cc1ccc(-c2ccccc2)c(C(F)(F)F)c1)N[C@H]1COC[C@@H]1O [Example 10]
178 nM | CS(=O)(=O)NCCCNC(=O)C#Cc1ccc(-c2ccccc2)c(C(F)(F)F)c1 [Example 32]
155 nM | CN1CCN(C(=O)C#Cc2ccc(-c3ccccc3)c(C(F)(F)F)c2)CC1 [Example 3]
153 nM | CN(CC(N)=O)C(=O)C#Cc1ccc(-c2ccccc2)c(C(F)(F)F)c1 [Example 29]
121 nM | NC(=O)[C@@H]1CCCN1C(=O)C#Cc1ccc(-c2ccccc2)c(C(F)(F)F)c1 [Example 24]
99 nM | O=C(C#Cc1ccc(-c2ccccc2OC(F)(F)F)c(C(F)(F)F)c1)N[C@H]1COC[C@H]1O [Example 73]
95 nM | NC(=O)[C@@H]1C[C@H](O)CN1C(=O)C#Cc1ccc(-c2ccccc2)c(C(F)(F)F)c1 [Example 28]
91 nM | NC(=O)[C@H]1CCCN1C(=O)C#Cc1ccc(-c2ccccc2)c(C(F)(F)F)c1 [Example 23]
88 nM | O=C(C#Cc1ccc(-c2ccccc2)c(C(F)(F)F)c1)N1CCS(=O)(=O)CC1 [Example 38]
66 nM | COc1ccc(N(CCO)C(=O)C#Cc2ccc(-c3ccccc3)c(C(F)(F)F)c2)cn1 [Example 54]
64 nM | O=C(C#Cc1ccc(-c2ccccc2OC(F)(F)F)c(C(F)(F)F)c1)N[C@@H]1COC[C@H]1O [Example 68]
48 nM | NS(=O)(=O)c1cccc(NC(=O)C#Cc2ccc(-c3ccccc3)c(C(F)(F)F)c2)c1 [Example 50]
